# From US20150065494A1, “AMINOSTYRYLBENZOFURAN DERIVATIVES AS INHIBITORS AGAINST BETA-AMYLOID FIBRIL FORMATION, AND PHARMACEUTICAL COMPOSITION COMPRISING SAME” (KOREA INSTITUTE OF SCIENCE AND TECHNOLOGY, priority 2012, published 2015)
# Counter-ions that a name gives are not always drawn. Like-named read-outs stand apart in the source and are kept apart here.
# Key:
# [1] = target: hERG potassium ion channel (Homo sapiens, UniProt Q12809); assay: Inhibitory effect of hERG potassium ion channel (whole-cell patch clamp, HEK-hERG cell line); format: cell-based
# Protocol: A HEK-hERG cell line (IonGate Biosciences, Frankfrut, Germany) which stably expresses hERG was cultured in a DMEM (Dulbecco's modified Eagle's Medium, Sigma Co., St. Louis, Mo., USA) supplemented with 10% fetal bovine serum (FBS, Cambrex, Walkesville, Md., USA) and 0.5 mg/mL zeocin (Invitrogen, Carlsbad, Calif., USA). The cell line was subcultured for 5 days after culture when 80% confluency was reached.
# A solution within an electrode used to measure the potassium ion current is composed of 115 mM K-aspartate, 20 mM KCl, 10 mM EGTA, 10 mM HEPES, 2.5 mM tris-phosphocreatine, 0.1 mM Na2GTP and 5 mM MgCl2 (pH 7.2, 290 mOsm/Kg H2O). A solution for an extracellular perfusate is composed of 135 mM NaCl, 5 mM KCl, 1 mM MgCl2, 2 mM CaCl2, 10 mM glucose and 10 mM HEPES (pH 7.2, 300 mOsm/Kg H2O). […]
# Potassium ion current was measured by using EPC10 (Instrutech Co., NY, USA) patch clamp amplifier in accordance with the conventional whole-cell patch clamp method. […] The membrane capacitance and series resistance of cell membrane were calibrated by 80% or more and potassium ion current was measured at a sampling rate of 2 kHz and a low-pass filter of 2 kHz (−3 dB; 8-pole Bassel filter). […]
# The results were analyzed by using Pulse/Pulsefit (v9.0, HEKA Elektronik, Lambrecht, Germany) and Igor macro. […]
# beta-amyloid 42 (Aβ42) = target: T1, beta-amyloid 42 (Aβ42) (Homo sapiens, UniProt P05067); assay: Inhibitory effect on the formation of beta-amyloid fibrils in vitro (ThT fluorescence assay); format: biochemical; conditions: for inhibition at 10 µM: 10 μM compound, 25 μM Aβ42, ThT fluorescence
# T1 construct: Beta-amyloid 42 (Aβ42) was dissolved in dimethylsulfoxide (DMSO) to form a 250 mM Aβ42 stock solution
# Protocol: Beta-amyloid 42 (Aβ42) was dissolved in dimethylsulfoxide (DMSO) to form a […] Aβ42 stock solution. In addition, ThT (thioflavin T) was dissolved in distilled water to obtain a concentration of 1 mM and subsequently diluted with 50 mM glycin buffer (pH 8.5) to yield a 5 μM ThT stock solution. 45 μL of PBS (phosphate buffer saline, pH 7.4) was added to each of a 96-well fluorescence microplate (white, F-bottom). 5 μL of the 250 μM Aβ42 stock solution was added to each well. The final concentration of each compound obtained in Examples was in a range of 10 to 0.001 μM by adding 2 μL of a solution, which was prepared by dissolving the subject compounds obtained in Examples in DMSO, to each well. At this time, the final concentration of Aβ42 in each well was 25 μM. The plate was then incubated for 1 hr at room temperature, and 150 μL of the 5 μM ThT stock solution was added to each well.
# The fluorescence intensity of each well was determined with the multi-label fluorescence counter (LS-55 Luminescence spectrometer: Perkin Elmer) at an excitation wavelength of 450 nm (excitation slit width: 10 nm) and an emission wavelength of 482 nm (emission slit width: 10 nm), while adjusting counting time to 1 second. The control group was prepared by adding PBS solution, Aβ42 and DMSO, without adding the inventive compound prepared above. A percent inhibition on the formation of beta-amyloid fibrils was calculated in accordance with the following equation, and IC50 was calculated by using GraphPad Prism version 4.03 Program.
# % Inhibition=[1−(C−D)/(A−B)]×100
# A (control group)=fluorescence intensity in a group treated with PBS solution, Aβ42 and DMSO
# B (blank)=fluorescence intensity in a group treated with PBS solution and DMSO
# C (experimental group)=fluorescence intensity in a group treated with PBS solution, Aβ42, the inventive compound and DMSO
# D (compensation value to the experimental group) =fluorescence intensity in a group treated with PBS solution, the inventive compound and DMSO
# [2] = Pharmacokinetics test (blood concentration) in mice and rats; format: in vivo, ICR mice and SD rats
# Protocol: (§1) Three 7 week-old ICR mice (weight: approximately 30 g) and three 8 week-old SD rats (weight: approximately 250 g) were used per test group. A solution prepared by dissolving a hydrochloride salt of the compound of Example 3 in excipient (DMSO/Tween 20/saline: 0.1/0.6/2.3, v/v/v) or distilled water was administered to each experimental animal. The test compound was intravenously administered in an amount of 5 mL per kg of body weight through the fine vein or orally administered in an amount of 10 mL per kg of body weight.
# At 0.5, 1, 2, 4, 10, and 24 hrs after the oral administration of the test compounds, the blood was collected from periorbital veins into the tube containing heparin (1000 IU/mL, 3 μL) for the mice, and from jugular veins for rats. The blood samples were centrifuged (12,000 rpm for 2 min, Eppendorf Co.) to obtain plasmas and the obtained plasmas were kept in a freezer until the analysis at −80° C.
# (§2) 50 μL of plasma was placed in a 2.0 mL tube with a cap (Eppendorf Co.) and acidified by adding 20 μL of 0.1% formic acid thereto. An internal standard solution and 1 mL of ethyl acetate as an extract solvent were added to the resulting solution. The resulting solution was mixed by using a thermomixer (Eppendorf Co.) for 5 min at 1,400 rpm, and then subjected to centrifugation (Eppendorf Co.). The supernatant was collected and concentrated at 35° C. by using a cyclone. The residue was re-dissolved in 50 μL of mobile phase and 5 μL of the resulting solution was injected into LC/MS and analyzed.
# (§3) In Table 3, “iv” refers to intravenous injection; “po” refers to per oral; “AUC plasma” refers to an area under the plasma level-time curve; “Cmax” refers to a maximum plasma concentration; “Tmax” refers to a time to reach Cmax; “BA” refers to bioavailability (%) according to Equation 2 below; “AUC Brain” refers to an area under the brain tissue level-time curve; and “AUCBrain/AUCPlasma” refers to a passage rate of the test compound to the brain.
# Bioavailability (%)=[(AUCpo/AUCiv)×(Doseiv/Dosepo)×100]
# In the above Equation, AUCpo refers to an area under the blood concentration time curve (AUC) after per oral administration, AUCiv means an AUC after the intravenous injection; Doseiv refers to a dose of the intravenous injection; and Dosepo refers to a dose of the per os.
# [3] = Passage test through the blood-brain barrier (brain tissue concentration); format: in vivo, ICR mice and SD rats; conditions: for Kp: brain, read-out: AUCBrain/AUCPlasma
# Protocol: as §1, with “v/v/v)” for “v/v/v) or distilled water”
# At 0.5, 1, 2, 4, 10 and 24 hrs after the administration of the test compound, the mice and rats were subjected to insufflations narcosis using isoflorane, followed by cutting the abdomen open. Subsequently, 1 mL of blood was collected from abdominal veins into the tube containing heparin (1000 IU/mL, 3 μL). The obtained blood samples were centrifuged for 2 min at 12,000 rpm to obtain plasma. The obtained plasmas were kept in a freezer at −80° C. until the analysis.
# The mice and rats from which the blood samples were obtained were subjected to bloodletting, and then, the brain tissues of the mice and rats was collected. The brain tissue thus obtained was washed with physiological saline 1 or 2 times to remove blood. The weight of the brain tissue was measured after the removal of adipose tissue and peripheral tissue. 4% bovine serum albumin (BSA) solution diluted with 10-fold was added to the brain tissue. The resulting solution was subjected to homogenization using a homogenizer. The diluted homogenate thus obtained was placed in 2 mL tube and was kept in a freezer at −80° C. until the analysis. All of the treatments to the sample were performed in ice.
# as §2, with “cap (Eppendorf Co.). An internal” for “cap (Eppendorf Co.) and acidified by adding 20 μL of 0.1% formic acid thereto. An internal”, “by using thermomixer (Eppendorf” for “by using a thermomixer (Eppendorf”, “min at 1400 rpm, and” for “min at 1,400 rpm, and”
# as §3
# T1 sequence (P05067 672-713 limits assumed): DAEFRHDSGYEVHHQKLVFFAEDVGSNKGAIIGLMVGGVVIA
# Chain of hERG potassium ion channel (Q12809 whole entry): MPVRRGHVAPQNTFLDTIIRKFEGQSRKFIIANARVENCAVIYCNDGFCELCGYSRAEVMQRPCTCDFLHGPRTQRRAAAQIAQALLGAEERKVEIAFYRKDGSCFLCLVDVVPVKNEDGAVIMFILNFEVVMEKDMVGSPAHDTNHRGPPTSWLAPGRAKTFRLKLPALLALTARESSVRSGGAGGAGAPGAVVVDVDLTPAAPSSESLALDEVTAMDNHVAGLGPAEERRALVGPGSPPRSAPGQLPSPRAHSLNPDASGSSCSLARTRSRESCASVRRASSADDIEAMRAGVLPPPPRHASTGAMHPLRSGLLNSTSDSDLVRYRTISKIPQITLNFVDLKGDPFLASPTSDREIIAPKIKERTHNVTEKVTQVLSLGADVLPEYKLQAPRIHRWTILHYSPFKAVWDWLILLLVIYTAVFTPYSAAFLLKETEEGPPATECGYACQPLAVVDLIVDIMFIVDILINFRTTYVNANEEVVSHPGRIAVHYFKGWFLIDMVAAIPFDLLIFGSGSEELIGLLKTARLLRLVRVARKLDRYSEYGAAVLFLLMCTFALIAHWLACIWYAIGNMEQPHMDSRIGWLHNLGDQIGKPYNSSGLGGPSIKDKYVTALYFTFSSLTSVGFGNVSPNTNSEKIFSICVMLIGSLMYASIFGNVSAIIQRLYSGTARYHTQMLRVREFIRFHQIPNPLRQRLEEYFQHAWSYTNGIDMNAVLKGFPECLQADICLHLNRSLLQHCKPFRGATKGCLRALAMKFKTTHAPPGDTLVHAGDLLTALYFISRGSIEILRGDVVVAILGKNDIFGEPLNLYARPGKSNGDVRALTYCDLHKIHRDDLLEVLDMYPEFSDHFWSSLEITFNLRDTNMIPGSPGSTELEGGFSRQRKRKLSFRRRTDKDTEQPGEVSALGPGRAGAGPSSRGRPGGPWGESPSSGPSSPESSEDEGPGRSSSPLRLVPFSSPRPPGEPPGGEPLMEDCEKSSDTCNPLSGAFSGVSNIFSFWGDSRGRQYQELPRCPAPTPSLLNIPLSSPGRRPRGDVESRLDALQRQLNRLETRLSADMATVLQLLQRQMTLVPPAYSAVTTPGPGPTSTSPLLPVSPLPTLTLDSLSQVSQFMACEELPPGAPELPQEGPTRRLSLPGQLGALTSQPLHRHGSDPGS
inhibition at 10 µM (beta-amyloid 42 (Aβ42)),BA ([2]; 10.0 mg/kg po vs 5.0 mg/kg iv),"AUC ([2]; plasma, 5.0 mg/kg, iv, n = 3)","AUC ([2]; plasma, 10.0 mg/kg, po, n = 3)","Cmax ([2]; plasma, 10.0 mg/kg, po, n = 3)","Tmax ([2]; plasma, 10.0 mg/kg, po, n = 3)","AUC Brain ([3]; 5.0 mg/kg, iv, brain tissue)","AUC Brain ([3]; 10.0 mg/kg, po, brain tissue)","Cmax (brain) ([3]; 10.0 mg/kg, po, brain tissue)","Tmax ([3]; 10.0 mg/kg, po, brain tissue)","Kp ([3]; 5.0 mg/kg, iv)","Kp ([3]; 10.0 mg/kg, po)",SMILES,inhibitory efficacy on hERG potassium ion channel ([1]; result in words),"IC50 ([1]; HEK-hERG cells, whole-cell patch clamp, mean ± standard error)",Aβ42 % inhibition compared with comparative compound curcumin (beta-amyloid 42 (Aβ42); 10 μM)
,,,,,,,,,,,,"CN(C)CCOc1ccc2cc(/C=C/c3ccc(N(C)C)cc3)oc2c1 [Example 2, (E)-6-(2-dimethylaminoethoxy)-2-(4-dimethylaminostyryl)benzofuran]",insignificant inhibitory efficacy,,
≥ 70%,,,,,,,,,,,,"CN(C)CCOc1ccc2cc(/C=C/c3ccc(N(C)C)cc3)oc2c1 [Example 22, (E)-6-(2-dimethylaminoethoxy)-2-(4-dimethylaminostyryl)benzofuran hydrochloride]",,52.1 ± 3.68 µM,
≥ 70%,43.4%,0.535 µg·h/mL,0.472 µg·h/mL,0.0627 µg/mL,4 h,"54,114.7 ng · h/ml","27,412 ng · h/ml","3,828 ng/ml",10 h,101,58.1,"CN(C)CCCOc1ccc2cc(/C=C/c3ccc(N(C)C)cc3)oc2c1.Cl [Example 23, (E)-6-(3-dimethylaminopropoxy)-2-(4-dimethylaminostyryl)benzofuran hydrochloride]",,,"equal to or greater than that of the comparative compound, curcumin"
